Test results: PubChem BioAssay AID1845201 (Molecular Pharmacology Branch, DTP, NCI, 2023)

System: COR L88 complex tumor spheroid viability
Assay: Anticancer human tumor COR L88 cell line growth inhibition;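 further: compound exposure lasted 7 days before viability readout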;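 on viability, T/C: percent of DMSO vehicle-treated spheroids = 100%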
Conditions: for IC50: curve of first compound; for viability, T/C: stronger effect = lower value
Summary of the method: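 Complex spheroids of malignant cells with endothelial cells and mesenchymal stem cells; agents alone or combined, from near clinical Cmax (or 10 microM if unknown) down in half-log steps, 0.25% DMSO final.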

[1] = second compound 0.003 µM, first compound 0.0316 µM
[2] = second compound 0.003 µM, first compound 0.1 µM
[3] = second compound 0.003 µM, first compound 0.316 µM
[4] = second compound 0.003 µM, first compound 1 µM
[5] = second compound 0.003 µM, first compound 3.16 µM
[6] = second compound 0.003 µM, first compound 10 µM
[7] = second compound 0.00949 µM, first compound 0.0316 µM
[8] = second compound 0.00949 µM, first compound 0.1 µM
[9] = second compound 0.00949 µM, first compound 0.316 µM
[10] = second compound 0.00949 µM, first compound 1 µM
[11] = second compound 0.00949 µM, first compound 3.16 µM
[12] = second compound 0.00949 µM, first compound 10 µM
[13] = second compound 0.03 µM, first compound 0.0316 µM
[14] = second compound 0.03 µM, first compound 0.1 µM
[15] = second compound 0.03 µM, first compound 0.316 µM
[16] = second compound 0.03 µM, first compound 1 µM
[17] = second compound 0.03 µM, first compound 3.16 µM
[18] = second compound 0.03 µM, first compound 10 µM
[19] = second compound 0.0949 µM, first compound 0.0316 µM
[20] = second compound 0.0949 µM, first compound 0.1 µM
[21] = second compound 0.0949 µM, first compound 0.316 µM
[22] = second compound 0.0949 µM, first compound 1 µM
[23] = second compound 0.0949 µM, first compound 3.16 µM
[24] = second compound 0.0949 µM, first compound 10 µM
[25] = second compound 0.3 µM, first compound 0.0316 µM
[26] = second compound 0.3 µM, first compound 0.1 µM
[27] = second compound 0.3 µM, first compound 0.316 µM
[28] = second compound 0.3 µM, first compound 1 µM
[29] = second compound 0.3 µM, first compound 3.16 µM
[30] = second compound 0.3 µM, first compound 10 µM

SMILES | IC50 (second compound 0.003 µM) [nM] | IC50 (second compound 0.00949 µM) [nM] | IC50 (second compound 0.03 µM) [nM] | IC50 (second compound 0.0949 µM) [nM] | IC50 (second compound 0.3 µM) [nM] | viability, T/C [1] [%] | viability, T/C [2] [%] | viability, T/C [3] [%] | viability, T/C [4] [%] | viability, T/C [5] [%] | viability, T/C [6] [%] | viability, T/C [7] [%] | viability, T/C [8] [%] | viability, T/C [9] [%] | viability, T/C [10] [%] | viability, T/C [11] [%] | viability, T/C [12] [%] | viability, T/C [13] [%] | viability, T/C [14] [%] | viability, T/C [15] [%] | further results
CC(C)n1c(=O)n(C)c2cnc3cc(F)c(-c4ccc(OCCCN5CCCCC5)nc4)cc3c21 + CC[C@@]1(O)C(=O)OCc2c1cc1n(c2=O)Cc2cc3c(CN(C)C)c(O)ccc3nc2-1 | 5160 | 157 | < 31.6 | < 31.6 | < 31.6 | 85 | 94.2 | 76.9 | 80.6 | 68.2 | 26.9 | 51.9 | 52.9 | 48.2 | 40.6 | 33 | 14.1 | 46.5 | 42.1 | 37.3 | viability, T/C [16]: 29.7%; viability, T/C [17]: 30.6%; viability, T/C [18]: 14.2%; viability, T/C [19]: 38.6%; viability, T/C [20]: 36.4%; viability, T/C [21]: 30.2%; viability, T/C [22]: 28.6%; viability, T/C [23]: 27.2%; viability, T/C [24]: 15.3%; viability, T/C [25]: 44.3%; viability, T/C [26]: 42.7%; viability, T/C [27]: 39%; viability, T/C [28]: 34.5%; viability, T/C [29]: 27.7%; viability, T/C [30]: 14.7%
COc1ccc([C@@H](O)c2cc(-c3ncnc4cc(N5CCOCC5)ccc34)c(F)cc2Cl)nn1 + CC[C@@]1(O)C(=O)OCc2c1cc1n(c2=O)Cc2cc3c(CN(C)C)c(O)ccc3nc2-1 | 3180 | 4000 | 98.3 | 122 | 132 | 96.3 | 101 | 94.2 | 71.8 | 52.3 | 34.6 | 68.3 | 68.7 | 67.9 | 57.6 | 52.9 | 40.6 | 53.1 | 53.6 | 46.6 | viability, T/C [16]: 40.1%; viability, T/C [17]: 32%; viability, T/C [18]: 38.5%; viability, T/C [19]: 55.3%; viability, T/C [20]: 53.2%; viability, T/C [21]: 45.2%; viability, T/C [22]: 40.5%; viability, T/C [23]: 31.8%; viability, T/C [24]: 31.7%; viability, T/C [25]: 54.2%; viability, T/C [26]: 51%; viability, T/C [27]: 43.9%; viability, T/C [28]: 37.6%; viability, T/C [29]: 18.6%; viability, T/C [30]: 8.14%
